Experiments:
Type in all cases: in vivo
Kochia (Kochia scoparia) [1] = test: Test A preemergence; details: Bassia scoparia, pre-emergence, 240 h, 0 to 100 scale where 0 is no effect and 100 is complete control, read-out: Kochia plant response rating
Method in brief: (§1)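 Greenhouse, ~10 d after spray; visual injury vs untreated controls, 0 = no effect, 100 = complete control. Preemergence: directed soil spray over planted seeds. Postemergence: plants 2–10 cm, 1–2 leaf stage. Loam/sand blend. Compound in non-phytotoxic solvent with surfactant.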

[2] = tested on: barnyardgrass (Echinochloa crus-galli); test: Test A preemergence; details: Echinochloa crus-galli, pre-emergence, 240 h, 0 to 100 scale where 0 is no effect and 100 is complete control, read-out: Barnyardgrass plant response rating
Method in brief: as §1

[3] = tested on: giant foxtail (Setaria faberii); test: Test A preemergence; details: Setaria faberi, pre-emergence, 240 h, 0 to 100 scale where 0 is no effect and 100 is complete control, read-out: Foxtail, Giant plant response rating
Method in brief: as §1

[4] = tested on: pigweed (Amaranthus retroflexus); test: Test A preemergence; details: Amaranthus retroflexus, pre-emergence, 240 h, 0 to 100 scale where 0 is no effect and 100 is complete control, read-out: Pigweed plant response rating
[5] = tested on: ragweed (common ragweed, Ambrosia elatior); test: Test A preemergence; details: Ambrosia artemisiifolia, pre-emergence, 240 h, 0 to 100 scale where 0 is no effect and 100 is complete control, read-out: Ragweed plant response rating
Method in brief: as §1

[6] = tested on: ryegrass, Italian (Italian ryegrass, Lolium multiflorum); test: Test A preemergence; details: Lolium multiflorum, pre-emergence, 240 h, 0 to 100 scale where 0 is no effect and 100 is complete control, read-out: Ryegrass, Italian plant response rating
Method in brief: as §1

[7] = tested on: Galium (catchweed bedstraw, Galium aparine); test: Test A postemergence; details: Galium, post-emergence, 240 h, Postemergence, read-out: Galium plant response rating (0 to 100 scale)
Method in brief: as §1

Kochia (Kochia scoparia) [8] = test: Test A postemergence; details: Bassia scoparia, post-emergence, 240 h, Postemergence, read-out: Kochia plant response rating (0 to 100 scale)
Method in brief: as §1

[9] = tested on: barnyardgrass (Echinochloa crus-galli); test: Test A postemergence; details: Echinochloa crus-galli, post-emergence, 240 h, Postemergence
Method in brief: as §1

[10] = tested on: blackgrass (Alopecurus myosuroides); test: Test A postemergence; details: Alopecurus myosuroides, post-emergence, 240 h, Postemergence, read-out: Blackgrass plant response rating (0 to 100 scale)
Method in brief: as §1

corn (Zea mays) = test: Test A postemergence; details: Zea mays, post-emergence, 240 h, Postemergence, read-out: Corn plant response rating (0 to 100 scale)
Method in brief: as §1

[11] = tested on: giant foxtail (Setaria faberii); test: Test A postemergence; details: Setaria faberi, post-emergence, 240 h, Postemergence, read-out: Foxtail, Giant plant response rating (0 to 100 scale)
Method in brief: as §1

[12] = tested on: pigweed (Amaranthus retroflexus); test: Test A postemergence; details: Amaranthus retroflexus, post-emergence, 240 h, Postemergence, read-out: Pigweed plant response rating (0 to 100 scale)
Method in brief: as §1

[13] = tested on: ragweed (common ragweed, Ambrosia elatior); test: Test A postemergence; details: Ambrosia artemisiifolia, post-emergence, 240 h, Postemergence, read-out: Ragweed plant response rating (0 to 100 scale)
Method in brief: as §1

[14] = tested on: ryegrass, Italian (Italian ryegrass, Lolium multiflorum); test: Test A postemergence; details: Lolium multiflorum, post-emergence, 240 h, Postemergence, read-out: Ryegrass, Italian plant response rating (0 to 100 scale)
Method in brief: as §1

[15] = tested on: wheat (Triticum aestivum); test: Test A postemergence; details: Triticum aestivum, post-emergence, 240 h, Postemergence, read-out: Wheat plant response rating (0 to 100 scale)
Method in brief: as §1

[16] = tested on: barnyardgrass (Echinochloa crus-galli); test: Test B flooded paddy test; details: Echinochloa crus-galli, 250 g ai/ha, Flood; 0 to 100 scale where 0 is no effect and 100 is complete control; read-out: Barnyardgrass plant response rating
Method in brief: (§2)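 Flooding to 3 cm over soil accompanied treatment, which consisted of adding compound to the standing water around 2-leaf plants; depth was then maintained. Visual assessment versus controls followed at 13 to 15 d (scale 0–100, 0 meaning no effect).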

[17] = tested on: ducksalad (Heteranthera limosa); test: Test B flooded paddy test; details: Heteranthera limosa, 250 g ai/ha, Flood; 0 to 100 scale where 0 is no effect and 100 is complete control; read-out: Ducksalad plant response rating
Method in brief: as §2

rice (Oryra sativa) = test: Test B flooded paddy test; details: Oryza sativa, 250 g ai/ha, Flood; 0 to 100 scale where 0 is no effect and 100 is complete control; read-out: Rice plant response rating
Method in brief: as §2

[18] = tested on: sedge, umbrella (small-flower umbrella sedge, Cyperus difformis); test: Test B flooded paddy test; details: Cyperus difformis, 250 g ai/ha, Flood; 0 to 100 scale where 0 is no effect and 100 is complete control; read-out: Sedge, Umbrella plant response rating
Method in brief: as §2

[19] = 125 g ai/ha, preemergence, visual injury rating, approximately 10 d
[20] = 125 g ai/ha, visual rating about 10 d after treatment
[21] = 31 g ai/ha, 0 is no effect, 100 is complete control

## CN1C[C@H](c2ccc(C(F)F)cc2)[C@@H](C(=O)Nc2cccnc2F)C1=O [Compound 1274]
Kochia (Kochia scoparia) [1]; 31 g ai/ha, Preemergence
  pest or weed control at 31 g/ha: 30%
Kochia (Kochia scoparia) [1]; [19]
  pest or weed control at 125 g/ha: 70%
[2]; 31 g ai/ha, Preemergence
  pest or weed control at 31 g/ha: 30%
[2]; [19]
  pest or weed control at 125 g/ha: 90%
[3]; 31 g ai/ha, Preemergence
  pest or weed control at 31 g/ha: 80%
[3]; [19]
  pest or weed control at 125 g/ha: 90%
[4]; 31 g ai/ha, Preemergence
  pest or weed control at 31 g/ha: 30%
[4]; [19]
  pest or weed control at 125 g/ha: 70%
[5]; 31 g ai/ha, Preemergence
  pest or weed control at 31 g/ha: 20%
[5]; [19]
  pest or weed control at 125 g/ha: 80%
[6]; 31 g ai/ha, Preemergence
  pest or weed control at 31 g/ha: 0%
[6]; [19]
  pest or weed control at 125 g/ha: 20%
[7]; [20]
  pest or weed control at 125 g/ha: 60%
[7]; [21]
  pest or weed control at 31 g/ha: 50%
Kochia (Kochia scoparia) [8]; [20]
  pest or weed control at 125 g/ha: 70%
Kochia (Kochia scoparia) [8]; [21]
  pest or weed control at 31 g/ha: 50%
[9]; 125 g ai/ha, visual rating about 10 d after treatment, read-out: Barnyardgrass plant response rating (0 to 100 scale, 0 no effect, 100 complete control)
  pest or weed control at 125 g/ha: 90%
[9]; 31 g ai/ha, 0 is no effect, 100 is complete control, read-out: Barnyardgrass plant response rating (0 to 100 scale)
  pest or weed control at 31 g/ha: 50%
[10]; [20]
  pest or weed control at 125 g/ha: 30%
[10]; [21]
  pest or weed control at 31 g/ha: 0%
Corn (Zea mays); [20]
  plant injury at 125 g/ha: 30%
Corn (Zea mays); [21]
  plant injury at 31 g/ha: 30%
[11]; [20]
  pest or weed control at 125 g/ha: 90%
[11]; [21]
  pest or weed control at 31 g/ha: 50%
[12]; [20]
  pest or weed control at 125 g/ha: 20%
[12]; [21]
  pest or weed control at 31 g/ha: 0%
[13]; [20]
  pest or weed control at 125 g/ha: 30%
[13]; [21]
  pest or weed control at 31 g/ha: 0%
[14]; [20]
  pest or weed control at 125 g/ha: 20%
[14]; [21]
  pest or weed control at 31 g/ha: 0%
[15]; [20]
  plant injury at 125 g/ha: 60%
[15]; [21]
  plant injury at 31 g/ha: 20%
[16]
  pest or weed control at 250 g/ha: 20%
[17]
  pest or weed control at 250 g/ha: 100%
Rice (Oryra sativa)
  pest or weed control at 250 g/ha: 0%
[18]
  pest or weed control at 250 g/ha: 0%

Reference: US12077503B2, “Substituted cyclic amides and their use as herbicides” (FMC CORPORATION, priority 2015, dated 2024)
